Values of other authors as cited in patent US20230079706A1, “Solid Cleansing Compositions and Methods for the Same” (Colgate-Palmolive Company, priority 2021, published 2023).

Test system: melanin
Conditions: personal care compositions with lower than 2.0 wt % Kojic acid

In the case of O=c1cc(CO)occ1O [Kojic acid, 5-Hydroxy-2-(hydroxymethyl)-4H-pyran-4-one], the “Efficacy in the reduction of melanin and/or the inhibition of melanin production” value is given as “poor to no efficacy”.
